Measured values reported in patent US20200270265A1, “TETRACYCLIC PYRIDONE COMPOUNDS AS ANTIVIRALS” (Novartis AG, priority 2016, published 2020).

Experiments:
Format in all cases: in vivo
[1] = Pharmacokinetics in mice (iv and PO); settings: iv 1.0 mg/kg, PO 2.0 mg/kg
[2] = Pharmacokinetics in dog (iv and PO); settings: iv 0.5 mg/kg, PO 1.0 mg/kg
[3] = Pharmacokinetics in rat (iv and PO); settings: iv 1.0 mg/kg, PO 2.0 mg/kg

Oral BA [1] [% F] | T1/2term [1] [h] | Oral BA [2] [% F] | T1/2term [2] [h] | Oral BA [3] [% F] | T1/2term [3] [h] | Structure (SMILES)
59 | 1.6 | 93 | 5.9 | 97 | 2.4 | COCCCOc1cc2c(cc1OC)-c1cc(=O)c(C(=O)O)cn1[C@H]1[C@@H]2CCC1(C)C [Compound 1.1, (3aS,12bR)-10-methoxy-11-(3-methoxypropoxy)-3,3-dimethyl-7-oxo-1,2,3,3a,7,12b-hexahydrocyclopenta[c]pyrido[2,1-a]isoquinoline-6-carboxylic acid]
87 | 3.8 | 96 | 7.2 | 57 | 9.2 | COCCCOc1cc2c(cc1OC)-c1c(F)c(=O)c(C(=O)O)cn1[C@H]1[C@@H]2CCC1(C)C [Compound 3.1, (3aS,12bR)-8-fluoro-10-methoxy-11-(3-methoxypropoxy)-3,3-dimethyl-7-oxo-1,2,3,3a,7,12b-hexahydrocyclopenta[c]pyrido[2,1-a]isoquinoline-6-carboxylic acid]
100 | 1.8 | 94 |  | 65 | 1.2 | COCCCOc1cc2c(cc1OC)-c1cc(=O)c(C(=O)O)cn1[C@H]1[C@@H]2OCC1(C)C [Compound 4.1, (3aR,12bR)-10-methoxy-11-(3-methoxypropoxy)-3,3-dimethyl-7-oxo-3,3a,7,12b-tetrahydro-2H-furo[3,2-c]pyrido[2,1-a]isoquinoline-6-carboxylic acid]
